In the NIST ThermoML archive (doi:10.1021/je300938w):

Experiments:
[1] = wn = mass fraction of the nth substance listed; settings: 101 kPa, Liquid; for viscosity: Concentric cylinders viscometry; for mass density: Vibrating tube method
[2] = refractive index (Na D-line) (dimensionless); wn = mass fraction of the nth substance listed; settings: 101 kPa, Liquid, Standard Abbe refractometry

CC(O)CN(CC(C)O)CC(C)O (stereo not given) [triisopropanolamine] + O
Settings	mass density, [1] [kg/m3]	refractive index, [2]	viscosity, [1] [mPa·s]
298.15 K, w1 = 0.05	1000.88	1.34069	1.083
298.15 K, w1 = 0.1	1004.3	1.34815	1.36
298.15 K, w1 = 0.15	1007.92	1.35565	1.71
298.15 K, w1 = 0.2	1011.66	1.36317	2.173
298.15 K, w1 = 0.25	1015.04	1.37063	2.857
303.15 K, w1 = 0.05	999.387	1.34001	0.9842
303.15 K, w1 = 0.1	1002.67	1.34737	1.198
303.15 K, w1 = 0.15	1006.1	1.35487	1.486
303.15 K, w1 = 0.2	1009.61	1.36227	1.859
303.15 K, w1 = 0.25	1012.73	1.36979	2.396
308.15 K, w1 = 0.05	997.679	1.33922	0.8883
308.15 K, w1 = 0.1	1000.83	1.34656	1.068
308.15 K, w1 = 0.15	1004.08	1.35393	1.309
308.15 K, w1 = 0.2	1007.37	1.36133	1.612
308.15 K, w1 = 0.25	1010.26	1.36869	2.051
313.15 K, w1 = 0.05	995.768	1.33853	0.8034
313.15 K, w1 = 0.1	998.785	1.34572	0.9574
313.15 K, w1 = 0.15	1001.88	1.35309	1.159
313.15 K, w1 = 0.2	1004.97	1.36039	1.418
313.15 K, w1 = 0.25	1007.64	1.36764	1.774
318.15 K, w1 = 0.05	993.671	1.33769	0.7315
318.15 K, w1 = 0.1	996.561	1.34484	0.8658
318.15 K, w1 = 0.15	999.498	1.35209	1.038
318.15 K, w1 = 0.2	1002.41	1.35933	1.257
318.15 K, w1 = 0.25	1004.88	1.36653	1.553
323.15 K, w1 = 0.05	991.401	1.3368	0.6696
323.15 K, w1 = 0.1	994.168	1.34387	0.7874
323.15 K, w1 = 0.15	996.957	1.35104	0.9361
323.15 K, w1 = 0.2	999.698	1.35818	1.125
323.15 K, w1 = 0.25	1002	1.36532	1.373
328.15 K, w1 = 0.05	988.96	1.33565	0.6164
328.15 K, w1 = 0.1	991.613	1.34287	0.7208
328.15 K, w1 = 0.15	994.263	1.34999	0.8494
328.15 K, w1 = 0.2	996.847	1.35718	1.013
328.15 K, w1 = 0.25	998.98	1.36417	1.224
333.15 K, w1 = 0.05	986.362	1.33481	0.5719
333.15 K, w1 = 0.1	988.905	1.34176	0.6624
333.15 K, w1 = 0.15	991.422	1.34883	0.7754
333.15 K, w1 = 0.2	993.857	1.35587	0.9186
333.15 K, w1 = 0.25	995.844	1.36291	1.104
338.15 K, w1 = 0.05	983.585	1.3337	0.535
338.15 K, w1 = 0.1	985.961	1.34063	0.6134
338.15 K, w1 = 0.15	988.426	1.34762	0.7114
338.15 K, w1 = 0.2	990.739	1.35461	0.8381
338.15 K, w1 = 0.25	992.589	1.36154	0.9991
343.15 K, w1 = 0.05	980.297	1.33265	0.5064
343.15 K, w1 = 0.1	982.83	1.33943	0.57
343.15 K, w1 = 0.15	985.312	1.34641	0.6596
343.15 K, w1 = 0.2	987.395	1.35319	0.7694
343.15 K, w1 = 0.25	989.222	1.36012	0.9113
